Data published in US8729082B2, “Substituted imidazoquinoxalines” (Bayer Intellectual Property GmbH, priority 2009, dated 2014).

Molecular target: T1, human kinase Mps-1 (Homo sapiens, UniProt P33981)
T1 construct: N-terminally GST-tagged human full length recombinant Mps-1 kinase; purchased Invitrogen, Karslruhe, Germany PV4071
T1 sequence (P33981 1-857): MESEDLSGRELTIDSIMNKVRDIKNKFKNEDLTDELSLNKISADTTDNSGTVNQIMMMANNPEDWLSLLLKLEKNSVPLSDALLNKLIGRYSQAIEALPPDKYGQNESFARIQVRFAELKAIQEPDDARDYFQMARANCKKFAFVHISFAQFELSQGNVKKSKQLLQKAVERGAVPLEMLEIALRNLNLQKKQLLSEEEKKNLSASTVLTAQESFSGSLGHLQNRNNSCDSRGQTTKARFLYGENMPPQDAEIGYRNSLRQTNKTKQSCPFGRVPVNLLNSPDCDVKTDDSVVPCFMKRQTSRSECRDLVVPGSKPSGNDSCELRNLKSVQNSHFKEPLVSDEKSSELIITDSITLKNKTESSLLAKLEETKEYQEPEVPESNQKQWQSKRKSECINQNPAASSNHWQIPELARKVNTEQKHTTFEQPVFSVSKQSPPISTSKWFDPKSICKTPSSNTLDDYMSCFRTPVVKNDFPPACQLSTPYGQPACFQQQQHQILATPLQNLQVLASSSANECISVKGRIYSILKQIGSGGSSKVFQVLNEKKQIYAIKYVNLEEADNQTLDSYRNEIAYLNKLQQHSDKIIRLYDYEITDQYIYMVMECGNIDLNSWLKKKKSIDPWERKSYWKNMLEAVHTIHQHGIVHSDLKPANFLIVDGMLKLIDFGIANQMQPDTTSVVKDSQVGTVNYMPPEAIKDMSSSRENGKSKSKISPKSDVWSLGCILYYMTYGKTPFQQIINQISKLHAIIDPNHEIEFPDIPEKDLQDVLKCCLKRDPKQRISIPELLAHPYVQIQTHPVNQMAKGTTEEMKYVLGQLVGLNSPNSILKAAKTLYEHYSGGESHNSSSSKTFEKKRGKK
Experiment: Mps-1 kinase assay (HTRF)
Format: biochemical
Details: lowATP; mean; read-out: Mps1 lowATP mean IC50
Summary of the method: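 HTRF readout: EDTA-stopped reactions incubated 1 h with europium anti-phospho(Ser/Thr) antibody and streptavidin-XLent, emission ratio 665/620 nm after 350 nm excitation. Kinase step: compound pre-bound 15 min to ~1 nM GST-Mps-1, then 60 min at 22 °C with ATP and biotin-peptide substrate; inhibition scaled between no-inhibitor (0%) and no-enzyme (100%) controls.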

IC50 [nM]	Structure (SMILES)
19400	CCCCNc1nc2cc(F)c(F)cc2n2c(-c3ccc(NC(=O)NC)cc3)cnc12 [Example 2-117, 1-{4-[4-(butylamino)-7,8-difluoroimidazo[1,2-a]quinoxalin-1-yl]phenyl}-3-methylurea]
199	CNC(=O)Nc1ccc(-c2cnc3c(NCc4ccnn4C)nc4cc(C)c(C)cc4n23)cc1 [Example 2-175, 1-[4-(7,8-dimethyl-4-{[(1-methyl-1H-pyrazol-5-yl)methyl]amino}imidazo[1,2-a]quinoxalin-1-yl)phenyl]-3-methylurea]
6590	CC(C)CNc1nc2ccccc2n2c(-c3ccc(C(=O)Nc4ccc(S(N)(=O)=O)cc4)cc3)cnc12 [Example 3-9, 4-{4-[(2-methylpropyl)amino]imidazo[1,2-a]quinoxalin-1-yl}-N-(4-sulfamoylphenyl)benzamide]
319	CCCNc1nc2cc(F)c(F)cc2n2c(-c3ccc(C(=O)NC4CC4)c(Cl)c3)cnc12 [Example 2-124, 2-chloro-N-cyclopropyl-4-[7,8-difluoro-4-(propylamino)imidazo[1,2-a]quinoxalin-1-yl]benzamide]
312	CNC(=O)Nc1ccc(-c2cnc3c(NCC4CC4)nc4cc(C)c(C)cc4n23)cc1 [Example 2-170, 1-(4-{4-[(cyclopropylmethyl)amino]-7,8-dimethylimidazo[1,2-a]quinoxalin-1-yl}phenyl)-3-methylurea]
180	COCCNc1nc2ccccc2n2c(-c3ccc(C(=O)NC4CC4)cc3)cnc12 [Example 2-12, N-cyclopropyl-4-{4-[(2-methoxyethyl)amino]imidazo[1,2-a]quinoxalin-1-yl}benzamide]
59.8	CCNc1nc2cc(F)c(F)cc2n2c(-c3ccc(C(=O)NC4CC4)cc3)cnc12 [Example 2-99, N-cyclopropyl-4-[4-(ethylamino)-7,8-difluoroimidazo[1,2-a]quinoxalin-1-yl]benzamide]
1580	O=C(NC1CC1)c1ccc(-c2cnc3c(NCc4cccnc4)nc4cc(F)c(F)cc4n23)cc1Cl [Example 2-135, 2-chloro-N-cyclopropyl-4-{7,8-difluoro-4-[(pyridin-3-ylmethyl)amino]imidazo[1,2-a]quinoxalin-1-yl}benzamide]
506	CCCCNc1nc2cc(C#N)ccc2n2c(-c3ccc(C(=O)NC4CC4)c(Cl)c3)cnc12 [Example 2-243, 4-[4-(butylamino)-7-cyanoimidazo[1,2-a]quinoxalin-1-yl]-2-chloro-N-cyclopropylbenzamide]
48.2	O=C(NC1CC1)c1ccc(-c2cnc3c(NCC4CC4)nc4ccc(F)cc4n23)cc1 [Example 2-52, N-cyclopropyl-4-{4-[(cyclopropylmethyl)amino]-8-fluoroimidazo[1,2-a]quinoxalin-1-yl}benzamide]
2.22	Cc1cc2nc(NCC(C)C)c3ncc(-c4ccc(C(=O)NC5CC5)cc4)n3c2cc1C [Example 2-154, N-cyclopropyl-4-{7,8-dimethyl-4-[(2-methylpropyl)amino]imidazo[1,2-a]quinoxalin-1-yl}benzamide]
16300	CC(C)CNc1nc2ccccc2n2c(-c3cccc(F)c3F)cnc12 [Example 1-31, 1-(2,3-difluorophenyl)-N-(2-methylpropyl)imidazo[1,2-a]quinoxalin-4-amine]
113	O=C(NC1CC1)c1ccc(-c2cnc3c(NCCO)nc4ccccc4n23)cc1 [Example 2-1, N-cyclopropyl-4-[4-(2-hydroxy-ethylamino)-imidazo[1,2-a]quinoxalin-1-yl]-benzamide]
17800	CNC(=O)Nc1ccc(-c2cnc3c(NCC(O)CO)nc4cc(C#N)ccc4n23)cc1 (stereo not shown) [Example 2-233, 1-(4-{7-cyano-4-[(2,3-dihydroxypropyl)amino]imidazo[1,2-a]quinoxalin-1-yl}phenyl)-3-methylurea]
5860	CNC(=O)Nc1ccc(-c2cnc3c(NCC4CC4)nc4cc(F)c(F)cc4n23)cc1 [Example 2-120, 1-(4-{4-[(cyclopropylmethyl)amino]-7,8-difluoroimidazo[1,2-a]quinoxalin-1-yl}phenyl)-3-methylurea]
143	O=C(NC1CC1)c1ccc(-c2cnc3c(NCc4cccc(F)c4)nc4cc(F)c(F)cc4n23)cc1 [Example 2-92, N-cyclopropyl-4-{7,8-difluoro-4-[(3-fluorobenzyl)amino]imidazo[1,2-a]quinoxalin-1-yl}benzamide]

IC50 [nM]	Structure (SMILES)
19400	CC(C)CNc1nc2ccccc2n2c(-c3ccc(C(=O)Nc4ccccc4C(N)=O)cc3)cnc12 [Example 3-11, N-(2-carbamoylphenyl)-4-{4-[(2-methylpropyl)amino]imidazo[1,2-a]quinoxalin-1-yl}benzamide]
382	O=C(NC1CC1)c1ccc(-c2cnc3c(NCCCN4CCCC4=O)nc4cc(F)c(F)cc4n23)cc1 [Example 2-93, N-cyclopropyl-4-(7,8-difluoro-4-{[3-(2-oxopyrrolidin-1-yl)propyl]amino}imidazo[1,2-a]quinoxalin-1-yl)benzamide]
997	CC(C)CNc1nc2ccccc2n2c(-c3ccc(C(=O)Nc4ccn(C)n4)cc3)cnc12 [Example 3-23, 4-{4-[(2-methylpropyl)amino]imidazo[1,2-a]quinoxalin-1-yl}-N-(1-methyl-1H-pyrazol-3-yl)benzamide]
260	CNC(=O)Nc1ccc(-c2cnc3c(NCc4ccncc4)nc4cc(C)c(C)cc4n23)cc1 [Example 2-172, 1-(4-{7,8-dimethyl-4-[(pyridin-4-ylmethyl)amino]imidazo[1,2-a]quinoxalin-1-yl}phenyl)-3-methylurea]
50.7	COCCCNc1nc2cc(C#N)ccc2n2c(-c3ccc(C(=O)NC4CC4)cc3)cnc12 [Example 2-218, 4-{7-cyano-4-[(3-methoxypropyl)amino]imidazo[1,2-a]quinoxalin-1-yl}-N-cyclopropylbenzamide]
5860	CC(C)CNc1nc2ccccc2n2c(-c3ccc(C(=O)NCCS(N)(=O)=O)cc3)cnc12 [Example 3-26, 4-{4-[(2-methylpropyl)amino]imidazo[1,2-a]quinoxalin-1-yl}-N-(2-sulfamoylethyl)benzamide]
349	CC(C)CNc1nc2ccccc2n2c(-c3ccc(C(=O)Nc4cccc(NC(=O)c5ccncc5)c4)cc3)cnc12 [Example 3-27, N-{3-[(4-{4-[(2-methylpropyl)amino]imidazo[1,2-a]quinoxalin-1-yl}benzoyl)amino]phenyl}pyridine-4-carboxamide]
99.6	O=C(NC1CC1)c1ccc(-c2cnc3c(NCc4cccnc4)nc4ccccc4n23)cc1 [Example 2-26, N-cyclopropyl-4-{4-[(pyridin-3-ylmethyl)amino]imidazo[1,2-a]quinoxalin-1-yl}benzamide]
16100	CNC(=O)Nc1ccc(-c2cnc3c(NCCCN4CCCC4=O)nc4cc(F)c(F)cc4n23)cc1 [Example 2-115, 1-[4-(7,8-difluoro-4-{[3-(2-oxopyrrolidin-1-yl)propyl]amino}imidazo[1,2-a]quinoxalin-1-yl)phenyl]-3-methylurea]
414	CNC(=O)Nc1ccc(-c2cnc3c(NCc4ccc(F)cc4)nc4cc(C)c(C)cc4n23)cc1 [Example 2-164, 1-(4-{4-[(4-fluorobenzyl)amino]-7,8-dimethylimidazo[1,2-a]quinoxalin-1-yl}phenyl)-3-methylurea]
50.7	N#Cc1ccc2c(c1)nc(NCc1cccc(F)c1)c1ncc(-c3ccc(C(=O)NC4CC4)cc3)n12 [Example 2-206, 4-{7-cyano-4-[(3-fluorobenzyl)amino]imidazo[1,2-a]quinoxalin-1-yl}-N-cyclopropylbenzamide]
8110	CNC(=O)Nc1ccc(-c2cnc3c(NCCCN4CCCC4=O)nc4cc(C#N)ccc4n23)cc1 [Example 2-225, 1-[4-(7-cyano-4-{[3-(2-oxopyrrolidin-1-yl)propyl]amino}imidazo[1,2-a]quinoxalin-1-yl)phenyl]-3-methylurea]
4450	Cn1ccc(CNc2nc3cc(F)c(F)cc3n3c(-c4ccc(C(=O)NC5CC5)c(Cl)c4)cnc23)n1 [Example 2-141, 2-chloro-N-cyclopropyl-4-(7,8-difluoro-4-{[(1-methyl-1H-pyrazol-3-yl)methyl]amino}imidazo[1,2-a]quinoxalin-1-yl)benzamide]
18900	CC(C)CNc1nc2ccccc2n2c(-c3cccnc3)cnc12 [Example 1-32, N-(2-methylpropyl)-1-(pyridin-3-yl)imidazo[1,2-a]quinoxalin-4-amine]
140	N#Cc1ccc2c(c1)nc(NCCC(N)=O)c1ncc(-c3ccc(C(=O)NC4CC4)cc3)n12 [Example 2-217, 4-{4-[(3-amino-3-oxopropyl)amino]-7-cyanoimidazo[1,2-a]quinoxalin-1-yl}-N-cyclopropylbenzamide]
